3 compounds from US12186329B2 (President and Fellows of Harvard College, priority 2018, dated 2025) can be followed below.

A short description of data set [1]: In vivo CA7S oral gavage: CA7S concentration in tissues and blood.
Protocol: Extraction. Cecal, liver, and human fecal samples (approximately 50 mg each) and mouse portal veins were pre-weighed in lysis tubes containing ceramic beads (Precellys lysing kit tough micro-organism lysing VK05 tubes for cecal, fecal samples, and portal veins; tissue homogenizing CIKMix tubes for liver samples; Bertin technologies, Montigny-le-Bretonneux, France). 400p L of methanol containing 10 μM internal standard (GCA) was added and the tubes were homogenized in a MagNA Lyser (6000 speed for 90 s*2, 7000 speed for 60 s). 50 μl of mouse serum was collected in Eppendorf tubes, followed by addition of 50 μL of methanol containing 10 μM internal standard (GCA). After vortexing for 1 min, the sample was cooled to −20° C. for 20 min. All methanol-extracted tissue samples were centrifuged at 4° C. for 30 min at 15,000 rpm. […]
UPLC-MS. […] Samples were analyzed using an Agilent Technologies 12990 Infinity 11 UPLC system coupled online to an Agilent Technologies 6120 Quadrupole LC/MS spectrometer in negative electrospray mode with a scan range of 350-550 m/z (MSD settings: fragmentor—250, gain—3.00, threshold—150, Step size—0.10, speed (u/sec)—743). […] For quantification of the analytes, standard curves were obtained using known bile acids, and then each analyte was quantified based on the standard curve and normalized based on the internal standard. […]
The subject of another data set is NCI-H716 cells. The data set can be described thus: Calcium measurement in NCI-H716 cells. The data set is classed as cell-based, human. The protocol: The cells were allowed to grow for 2 days in complete RPMI media. […] The concentration of DMSO was kept constant throughout the treatments and used as a negative control. Cells were incubated at 37° C. in an atmosphere of 5% CO2 for 2 hours. […] Cells on cell culture plates were placed on ice and gently washed with PBS (GenClone).

A further data set has as its system Caco-2 cells. The data set can be described thus: Cell viability assay in Caco-2 cells. The data set is classed as cell-based, human. As to conditions: overnight incubation. The protocol: Cell viability assay. […] The concentration of DMSO was kept constant and used as a negative control. […] Cell viability was measured in Countess II automated cell counter (Invitrogen). Percentage relative viability was calculated compared to DMSO control.

Data set [2] deals with DIO mice. Put plainly: CA7S gavage and OGTT after lentiviral shRNA knockdown of GLP-1R. The data set is classed as in vivo, mouse. As to conditions: GLP-1R shRNA knockdown, gavage 100 mg/kg, vs PBS. The protocol:
(§1) Age matched, […] mice were kept on HFD and their blood glucose levels were monitored until average fasting glucose levels were >160 mg/dL. Animals were fasted for 4 hours on the day of the experiment. […] Three hours later, an OGTT was performed using an oral gavage of 2 mg/g oral D-glucose (Sigma-Aldrich, St. Louis, Mo.). Blood glucose levels were measured at baseline and at minutes 15, 30, 60 and 120 with a OneTouch glucometer.

Data set [3] can be described thus: CA7S concentration in tissues and blood after enteral CA7S (UPLC-MS bile acid analysis).
Data set [4] concerns DIO mice. The data set can be described thus: In vivo CA7S gavage and oral glucose tolerance test (OGTT). More on the design: species or system mouse. As to conditions: gavage 100 mg/kg, vs vehicle. The protocol:
as §1

The test system of data set [5] is DIO mice. Put plainly: In vivo enteral (duodenal and rectal) treatment of DIO mice: glucose, GLP-1, insulin, TGR5 expression. More on the design: species or system mouse. To be noted: for Systemic GLP-1 levels: within 15 min.
Data set [6] concerns human intestinal L-cells (NCI-H716). Put plainly: GLP-1 secretion in human intestinal L-cells (NCI-H716). The class given is cell-based. As to conditions: for GLP-1 secretion in vitro: NCI-H716 L-cells, 2 hours; for GLP-1 secretion in vitro by CA7S extracted from cecal contents of SG mice: material extracted from mouse cecum.
The next data set is described as follows: pH stability test. The data set is classed as physicochemical. As to conditions: pH 1, 7.4 and 9, overnight at 37° C. As for the experimental part: pH stability test. […] Briefly, buffers of pH 1 (0.1 M HCl), pH 7.4 (PBS) and pH 9 (a 10 mM solution of ammonium formate adjusted to pH 9 with ammonium hydroxide) (all from Sigma) were prepared.
Data set [7] concerns DIO mice. The data set can be described thus: In vivo CA7S oral gavage: systemic GLP-1. More on the design: species or system mouse. As to conditions: oral gavage 100 mg/kg, 5 hours post-treatment, vs PBS.
[8] abbreviates: listed as Cholic acid-7-sulfate.

Where two headings read alike, the source gives them in different places.

For `C[C@H](CCC(=O)O)[C@H]1CC[C@H]2[C@@H]3[C@H](OS(=O)(=O)O)C[C@@H]4C[C@H](O)CC[C@]4(C)[C@H]3C[C@H](O)[C@]12C` [CA7S, cholic acid-7-sulfate], the “CA7S concentration (mean ± SEM), portal vein” value in [1] (DIO mice, CA7S gavage 100 mg/kg, 5 hours) came out at 13.2 ± 7.7 pmol/µL; in data set [3] (DIO mice, enteral CA7S), 6.13 ± 2.11 pmol/mg. The “CA7S accumulation in cecal contents (mean value)” value in [1] (oral gavage 100 mg/kg, 5 hours post-gavage) is given as 15,000 picomol/mg wet mass. In addition, the “Calcium levels in L-cells” value in the data set on NCI-H716 cells is “dose-dependent increase in calcium levels”; in the data set with NCI-H716 cells (setting [8]) it was “increased calcium levels”. In addition, in the data set on Caco-2 cells, the “Toxicity in intestinal Caco cells” value is “no toxicity”. Further, the “Glycemic curves and AUCs in OGTT in the absence of GLP-1R” value in the data set with DIO mice [2] is “no significant differences in the glycemic curves or AUCs”. For the same compound, the “CA7S concentration (mean ± SEM), cecum” value in [3] (DIO mice, enteral CA7S) is 2577 ± 185 pmol/mg. In data set [3] (DIO mice, enteral CA7S), the “CA7S concentration (mean ± SEM), systemic blood” value stood at 0.5 ± 0.2 pmol/µL. Besides, the “CA7S in cecal contents (average)” value in [3] (administration of 1 mg via duodenal and rectal catheters) came out at 2500 pmol/mg wet mass. Moreover, in data set [3] (dosing with 1 mg), the “cholic acid-7-sulfate in the cecum” value was approximately 2500 µM. The “Leak into systemic circulation and portal vein” value in data set [3] (ectopic (enteral) introduction) was “only minor amounts to leak into systemic circulation and in the portal vein”. The “Total and incremental areas under the glucose versus time curves (AUC and iAUC)” value in the data set on DIO mice [4] is on record as “significantly decreased”. The Insulin levels result in the data set with DIO mice [5] (DIO mice, enteral, vs PBS) is given as “increased insulin levels”. In the data set on DIO mice [5] (DIO mice, enteral CA7S), the “TGR5 expression in colon and terminal ileum” value was “increased in the colon, but not the terminal ileum”. The Blood glucose levels result with DIO mice [5] (HFD-fed DIO mice, enteral 1 mg, 15 min, vs PBS) is “reduced blood glucose levels”. The “Systemic GLP-1 levels” value is “increased systemic GLP-1 levels” with DIO mice [5] (HFD-fed DIO mice, enteral 1 mg, vs PBS) and “induced GLP-1 levels” in the data set on DIO mice [5] (HFD-fed DIO mice, enteral 1 mg, vs PBS, listed as cholic acid-7-sulfate). In addition, the “GLP-1 secretion after siRNA-mediated knockdown of TGR5” value in data set [6] is “abolished GLP-1 secretion”. Further, the “GLP-1 secretion in vitro” value in data set [6] is recorded as “to a similar degree as TDCA in a dose-dependent manner”; in data set [6] (setting [8]), “induces GLP-1 secretion in vitro better than the known GLP-1 inducer TDCA”. Besides, the “GLP-1 secretion in vitro by CA7S extracted from cecal contents of SG mice” value is reported as “also induced GLP-1 secretion in vitro” in data set [6] and “exhibit activity inducing GLP-1 secretion in vitro” in data set [6] (listed as cholic acid-7-sulfate). Besides, the “Stability at different pHs” value in the data set “pH stability test” is “stable in a wide range of pHs”. For the same compound, the “Systemic levels of GLP-1” value with DIO mice [7] is listed as “increased”.
Take `C[C@H](CCC(=O)O)[C@H]1CC[C@H]2[C@@H]3[C@H](O)C[C@@H]4C[C@H](O)CC[C@]4(C)[C@H]3C[C@H](O)[C@]12C` [CA, cholic acid, reference compound]: the “GLP-1 secretion in vitro” value in data set [6] is given as “had no effect on GLP-1 secretion”; in [6] (listed as cholic acid), “had no effect”.
For `C[C@H](CCC(=O)NCCS(=O)(=O)O)[C@H]1CC[C@H]2[C@@H]3CC[C@@H]4C[C@H](O)CC[C@]4(C)[C@H]3C[C@H](O)[C@]12C` [TDCA, taurodeoxycholic acid, reference compound], the “GLP-1 secretion after siRNA-mediated knockdown of TGR5” value in data set [6] (NCI-H716, TGR5 siRNA) is on record as “abolished”.
